{
  "source": "paper PMC3914891",
  "about": "“Pentacyclic Nitrofurans with In Vivo Efficacy and Activity against Nonreplicating Mycobacterium tuberculosis” (PLoS ONE, 2014)",
  "key": {"M. tuberculosis": {"tested_on": "M. tuberculosis", "experiment": "MIC determination, microbroth dilution, M. tuberculosis", "format": "cell-based, Mycobacterium tuberculosis", "details": "for MIC: Mycobacterium tuberculosis"}, "[1]": {"tested_on": "Klebsiella pneumoniae (ATCC 33495)", "experiment": "MIC, spectrum of activity: Klebsiella pneumoniae", "format": "cell-based", "details": "ATCC33495"}, "[2]": {"details": "rats; IV 10 mg/kg and oral 100 mg/kg"}, "in vitro": {"experiment": "in vitro", "details": "mouse, microsomes"}},
  "note": "Read-outs that look alike come from different tables or passages of the source.",
  "data": [
    {"molecule": "O=[N+]([O-])c1ccc(C2=NOC(c3ccc(N4CCC(Oc5ccc(OC(F)(F)F)cc5)CC4)cc3)C2)o1", "note": "(stereo not drawn) [Compound 9a, 3-(5-Nitrofuran-2-yl)-5-(4-(4-(4-(trifluoromethoxy)phenoxy)piperidin-1-yl)phenyl)-4,5-dihydroisoxazole]", "values": [
      {"measurement": "fold more potent than PA-824 (MIC)", "setting": "M. tuberculosis; M. tuberculosis MIC compared with PA-824", "result": 20, "unit": "fold"},
      {"measurement": "MIC", "setting": "M. tuberculosis; 168 h, read-out: M. tb. MIC", "result": 0.024, "unit": "µg/mL"},
      {"measurement": "MIC", "setting": "M. tuberculosis; M. tuberculosis, […], read-out: MIC", "result": 0.046, "unit": "µM"},
      {"measurement": "MIC", "setting": "[1]", "result": "> 200", "unit": "µg/mL"},
      {"measurement": "Toxicity by intravenous and oral dosing", "setting": "[2]", "result": "non-toxic"},
      {"measurement": "half-life", "setting": "in vitro", "result": 5.06, "unit": "h"}
    ]}
  ]
}
